According to doi:10.1101/2024.09.17.613365, “Type-II kinase inhibitors that target Parkinson’s Disease-associated LRRK2” (bioRxiv, 2025):

Columns and labels:
LRRK2^KW [1] = molecular target: T1, LRRK2^KW (Homo sapiens, UniProt Q5S007); parameters: Differential scanning fluorometry, thermal stabilization of LRRK2 KW by compound; conditions: binder
T1 construct: Kinase and WD40 domain construct (KW)
Source text: Next, we evaluated the potency and selectivity of these new compounds. We performed on-target screening by measuring the thermostability increase of LRRK2^KW in the presence of the new compounds using DSF (Supporting Information Table S2). We also determined the in vitro IC50 (median inhibitory concentration) values for each of the new compounds by purifying LRRK2^RCKW and measuring its kinase activity in the presence of our new inhibitors using the PhosphoSense® activity assay from AssayQuant (Supporting Information Table S2). Finally, we estimated the kinome selectivity of each compound by measuring the thermostability increase of approximately 100 representative kinases in the presence of the compounds via DSF (Supporting Information Table S2). […] Additionally, we screened a library of published type-II inhibitors to identify those that bind to LRRK2^KW (a Kinase and WD40 domain construct of LRRK2) with high affinity.

[2] = molecular target: T2, leucine-rich repeat kinase 2 (LRRK2) (Homo sapiens, UniProt Q5S007); assay: biochemical; parameters: PhosphoSense (AssayQuant) kinase activity assay with purified LRRK2 RCKW
T2 construct: LRRK2^RCKW (ROC, COR, Kinase, WD40)
T2 sequence (Q5S007 1327-2527 limits assumed): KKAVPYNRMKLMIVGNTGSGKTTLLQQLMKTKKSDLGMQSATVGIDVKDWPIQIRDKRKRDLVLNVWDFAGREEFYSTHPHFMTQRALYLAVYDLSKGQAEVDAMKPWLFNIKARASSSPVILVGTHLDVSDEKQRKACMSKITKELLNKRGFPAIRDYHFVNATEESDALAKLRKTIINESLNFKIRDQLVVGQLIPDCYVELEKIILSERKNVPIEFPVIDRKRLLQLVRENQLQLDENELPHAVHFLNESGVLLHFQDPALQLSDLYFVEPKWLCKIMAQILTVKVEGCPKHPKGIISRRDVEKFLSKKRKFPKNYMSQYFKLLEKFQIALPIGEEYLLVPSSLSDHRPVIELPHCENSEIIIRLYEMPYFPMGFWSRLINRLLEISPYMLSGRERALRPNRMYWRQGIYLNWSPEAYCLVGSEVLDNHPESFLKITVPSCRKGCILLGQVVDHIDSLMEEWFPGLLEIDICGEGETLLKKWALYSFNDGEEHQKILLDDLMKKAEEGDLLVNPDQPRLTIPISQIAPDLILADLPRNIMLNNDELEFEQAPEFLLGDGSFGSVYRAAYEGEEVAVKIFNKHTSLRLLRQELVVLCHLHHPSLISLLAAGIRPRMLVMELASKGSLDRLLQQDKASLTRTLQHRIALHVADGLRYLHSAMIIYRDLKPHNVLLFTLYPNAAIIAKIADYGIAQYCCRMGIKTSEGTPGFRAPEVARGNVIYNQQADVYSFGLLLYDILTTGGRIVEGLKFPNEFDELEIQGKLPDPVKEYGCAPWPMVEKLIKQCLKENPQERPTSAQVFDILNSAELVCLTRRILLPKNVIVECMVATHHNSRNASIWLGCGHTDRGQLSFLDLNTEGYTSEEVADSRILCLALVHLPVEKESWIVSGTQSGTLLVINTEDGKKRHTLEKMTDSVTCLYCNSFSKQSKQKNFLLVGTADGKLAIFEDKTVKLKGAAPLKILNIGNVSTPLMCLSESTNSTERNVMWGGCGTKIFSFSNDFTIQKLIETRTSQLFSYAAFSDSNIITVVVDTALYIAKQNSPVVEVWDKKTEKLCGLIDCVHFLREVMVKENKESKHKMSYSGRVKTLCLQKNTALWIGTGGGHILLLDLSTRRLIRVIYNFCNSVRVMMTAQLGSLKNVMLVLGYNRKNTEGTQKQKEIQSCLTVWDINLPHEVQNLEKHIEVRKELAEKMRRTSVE
Source text: (§1) Next, we evaluated the potency and selectivity of these new compounds. We performed on-target screening by measuring the thermostability increase of LRRK2^KW in the presence of the new compounds using DSF (Supporting Information Table S2). We also determined the in vitro IC50 (median inhibitory concentration) values for each of the new compounds by purifying LRRK2^RCKW and measuring its kinase activity in the presence of our new inhibitors using the PhosphoSense® activity assay from AssayQuant (Supporting Information Table S2). Finally, we estimated the kinome selectivity of each compound by measuring the thermostability increase of approximately 100 representative kinases in the presence of the compounds via DSF (Supporting Information Table S2).

[3] = molecular target: T2, leucine-rich repeat kinase 2 (LRRK2); assay: PhosphoSense kinase activity assay; DSF ΔTm […] K on LRRK2^KW; format: biochemical
[4] = molecular target: T2, leucine-rich repeat kinase 2 (LRRK2); assay: as above; format: biochemical; remark: listed apart in the source
[5] = molecular target: T2, leucine-rich repeat kinase 2 (LRRK2); assay: biochemical; parameters: PhosphoSense kinase activity assay, purified LRRK2 RCKW
Source text: as §1

LRRK2^KW [6] = molecular target: T1, LRRK2^KW; parameters: DSF thermal shift of purified LRRK2 KW construct with compound; conditions: binder
Source text: Additionally, we screened a library of published type-II inhibitors to identify those that bind to LRRK2^KW (a Kinase and WD40 domain construct of LRRK2) with high affinity. […] Next, we evaluated the potency and selectivity of these new compounds. We performed on-target screening by measuring the thermostability increase of LRRK2^KW in the presence of the new compounds using DSF (Supporting Information Table S2). We also determined the in vitro IC50 (median inhibitory concentration) values for each of the new compounds by purifying LRRK2^RCKW and measuring its kinase activity in the presence of our new inhibitors using the PhosphoSense® activity assay from AssayQuant (Supporting Information Table S2). Finally, we estimated the kinome selectivity of each compound by measuring the thermostability increase of approximately 100 representative kinases in the presence of the compounds via DSF (Supporting Information Table S2).

T1 sequence (Q5S007 whole entry, the tested form may be a part): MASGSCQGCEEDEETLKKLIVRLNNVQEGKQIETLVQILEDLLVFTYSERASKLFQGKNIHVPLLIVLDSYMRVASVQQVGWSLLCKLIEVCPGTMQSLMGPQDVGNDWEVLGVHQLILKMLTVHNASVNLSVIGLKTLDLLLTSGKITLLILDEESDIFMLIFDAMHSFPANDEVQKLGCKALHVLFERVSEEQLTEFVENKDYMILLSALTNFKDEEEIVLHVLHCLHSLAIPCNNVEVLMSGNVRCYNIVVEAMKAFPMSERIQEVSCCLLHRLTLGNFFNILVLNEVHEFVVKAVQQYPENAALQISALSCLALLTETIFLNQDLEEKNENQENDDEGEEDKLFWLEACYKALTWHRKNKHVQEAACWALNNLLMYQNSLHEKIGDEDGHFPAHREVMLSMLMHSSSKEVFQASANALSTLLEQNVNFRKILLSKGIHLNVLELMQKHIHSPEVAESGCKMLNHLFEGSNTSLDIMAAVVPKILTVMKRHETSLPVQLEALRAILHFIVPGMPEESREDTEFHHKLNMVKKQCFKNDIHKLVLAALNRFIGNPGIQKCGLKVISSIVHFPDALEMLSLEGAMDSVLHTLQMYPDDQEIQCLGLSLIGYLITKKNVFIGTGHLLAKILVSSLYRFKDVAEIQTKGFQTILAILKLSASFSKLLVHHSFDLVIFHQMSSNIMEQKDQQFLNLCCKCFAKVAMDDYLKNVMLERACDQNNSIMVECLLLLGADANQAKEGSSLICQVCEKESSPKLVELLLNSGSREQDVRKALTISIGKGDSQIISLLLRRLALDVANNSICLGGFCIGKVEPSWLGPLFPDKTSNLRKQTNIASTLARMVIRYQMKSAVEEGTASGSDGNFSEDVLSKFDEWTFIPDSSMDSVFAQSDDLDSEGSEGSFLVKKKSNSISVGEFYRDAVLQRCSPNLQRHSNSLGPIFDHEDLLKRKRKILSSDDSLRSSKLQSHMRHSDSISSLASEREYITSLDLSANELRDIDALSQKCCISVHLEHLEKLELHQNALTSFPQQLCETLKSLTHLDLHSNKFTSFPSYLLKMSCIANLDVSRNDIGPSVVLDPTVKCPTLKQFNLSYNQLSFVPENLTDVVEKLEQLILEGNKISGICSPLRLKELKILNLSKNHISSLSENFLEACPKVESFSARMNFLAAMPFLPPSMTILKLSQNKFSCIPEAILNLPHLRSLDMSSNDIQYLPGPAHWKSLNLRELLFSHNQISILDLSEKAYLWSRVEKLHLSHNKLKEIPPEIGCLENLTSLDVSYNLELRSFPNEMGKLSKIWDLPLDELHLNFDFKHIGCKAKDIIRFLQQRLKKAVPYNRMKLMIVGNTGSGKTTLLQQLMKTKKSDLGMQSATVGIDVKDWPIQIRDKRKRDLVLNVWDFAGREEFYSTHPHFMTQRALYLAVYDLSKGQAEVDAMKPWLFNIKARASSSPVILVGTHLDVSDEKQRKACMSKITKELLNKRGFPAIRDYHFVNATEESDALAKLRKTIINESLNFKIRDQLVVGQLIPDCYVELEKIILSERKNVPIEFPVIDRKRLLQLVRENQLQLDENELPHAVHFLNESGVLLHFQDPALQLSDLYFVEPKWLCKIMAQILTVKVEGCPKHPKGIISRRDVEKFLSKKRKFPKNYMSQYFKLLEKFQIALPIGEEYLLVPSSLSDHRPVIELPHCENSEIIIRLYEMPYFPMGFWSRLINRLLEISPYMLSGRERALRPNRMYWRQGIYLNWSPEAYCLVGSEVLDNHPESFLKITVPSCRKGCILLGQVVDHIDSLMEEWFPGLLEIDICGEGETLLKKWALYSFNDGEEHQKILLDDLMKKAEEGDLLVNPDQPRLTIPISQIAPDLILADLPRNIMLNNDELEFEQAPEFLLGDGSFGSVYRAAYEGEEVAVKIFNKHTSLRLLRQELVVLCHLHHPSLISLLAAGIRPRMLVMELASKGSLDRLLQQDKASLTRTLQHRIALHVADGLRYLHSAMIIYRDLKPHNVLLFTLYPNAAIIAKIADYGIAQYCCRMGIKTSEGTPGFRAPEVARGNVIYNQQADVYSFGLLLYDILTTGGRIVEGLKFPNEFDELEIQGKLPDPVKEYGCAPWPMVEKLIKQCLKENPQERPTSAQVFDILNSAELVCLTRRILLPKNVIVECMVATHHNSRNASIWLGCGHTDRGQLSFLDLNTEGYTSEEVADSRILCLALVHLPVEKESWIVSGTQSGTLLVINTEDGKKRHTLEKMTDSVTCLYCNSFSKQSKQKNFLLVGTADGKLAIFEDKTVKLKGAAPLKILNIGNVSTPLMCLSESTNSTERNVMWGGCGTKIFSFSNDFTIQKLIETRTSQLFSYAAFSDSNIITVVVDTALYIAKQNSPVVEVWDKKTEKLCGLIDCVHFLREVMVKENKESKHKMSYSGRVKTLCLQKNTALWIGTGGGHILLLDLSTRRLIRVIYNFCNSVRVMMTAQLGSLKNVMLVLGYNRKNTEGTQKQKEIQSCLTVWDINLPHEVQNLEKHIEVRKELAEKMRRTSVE

SMILES: CN1CCc2cc(N(C(=O)C3(C(N)=O)CC3)c3cccc(-c4c[nH]c5ncnc(N6CCOCC6)c45)c3)ccc2C1 [compound 10, N-(2-methyl-1,2,3,4-tetrahydroisoquinolin-6-yl)-N-(3-(4-morpholino-7H-pyrrolo[2,3-d]pyrimidin-5-yl)phenyl)cyclopropane-1,1-dicarboxamide]
- ΔTm [K] (LRRK2^KW [1]): 4.3 K
- IC50 [2]: 3180 ± 134 nM

SMILES: NC(=O)C1(C(=O)N(c2cccc(-c3c[nH]c4ncnc(N5CCOCC5)c34)c2)c2cccc3c2CCC3)CC1 [compound 11, N-(2,3-dihydro-1H-inden-4-yl)-N-(3-(4-morpholino-7H-pyrrolo[2,3-d]pyrimidin-5-yl)phenyl)cyclopropane-1,1-dicarboxamide]
- ΔTm [K] (LRRK2^KW [1]): 9.2 K
- IC50 [2]: 989 ± 32 nM

SMILES: Cc1cc(N(C(=O)C2(C(N)=O)CC2)c2cccc(-c3c[nH]c4ncnc(N5CCOCC5)c34)c2)ccc1F [compound 20, 20]
- IC50 [3]: 110 ± 11 nM

SMILES: NC(=O)C1(C(=O)N(c2cccc(-c3c[nH]c4ncnc(N5CCOCC5)c34)c2)c2ccc(F)c(Br)c2F)CC1 [compound 26, RN222]
- IC50 [4]: 134 ± 5 nM

SMILES: Cc1ccc(C(=O)Nc2ccc(CN3CCN(C)CC3)c(C(F)(F)F)c2)cc1C#Cc1ccc2cn[nH]c2c1 [compound 52, 3-((1H-indazol-6-yl)ethynyl)-4-methyl-N-(4-((4-methylpiperazin-1-yl)methyl)-3-(trifluoromethyl)phenyl)benzamide]
- IC50 ([5]; read-out: IC50): 897 ± 120 nM
- ∆Tm [K] (LRRK2^KW [6]): 10.0 K

SMILES: CC(C)(C)c1cc(NC(=O)Nc2ccc3cn[nH]c3c2)n(-c2ccc3ncccc3c2)n1 [compound 53, 1-(3-(tert-butyl)-1-(quinolin-6-yl)-1H-pyrazol-5-yl)-3-(1H-indazol-6-yl)urea]
- IC50 ([5]; read-out: IC50 [nM]): > 15000 nM
- ∆Tm [K] (LRRK2^KW [6]): 2.0 K

SMILES: Cc1ccc(-n2nc(C(C)(C)C)cc2NC(=O)Nc2ccc3cn[nH]c3c2)cc1 [compound 54, 1-(3-(tert-butyl)-1-(p-tolyl)-1H-pyrazol-5-yl)-3-(1H-indazol-6-yl)urea]
- IC50 ([5]; read-out: IC50 [nM]): > 15000 nM
- ∆Tm [K] (LRRK2^KW [6]): 2.0 K
